Changes are numbered by the printed parent chain. “And” between values parts separate entries of the source, which are not always exact repeats. Equal values may be shown once.
How the values were obtained:
mCST∆C [1] = molecular target: T1, mCST∆C (Mus musculus, UniProt Q61420); assay: Scintillation proximity binding assay (SPA), displacement of 30 nM [3H]CMP; settings: full SPA titration against 30 nM [3H]CMP
T1 construct: modifying the full-length construct using site-directed mutagenesis to remove the last 15 residues (322-336); made in house; host or cells: Pichia pastoris
T1 sequence (Q61420 1-321): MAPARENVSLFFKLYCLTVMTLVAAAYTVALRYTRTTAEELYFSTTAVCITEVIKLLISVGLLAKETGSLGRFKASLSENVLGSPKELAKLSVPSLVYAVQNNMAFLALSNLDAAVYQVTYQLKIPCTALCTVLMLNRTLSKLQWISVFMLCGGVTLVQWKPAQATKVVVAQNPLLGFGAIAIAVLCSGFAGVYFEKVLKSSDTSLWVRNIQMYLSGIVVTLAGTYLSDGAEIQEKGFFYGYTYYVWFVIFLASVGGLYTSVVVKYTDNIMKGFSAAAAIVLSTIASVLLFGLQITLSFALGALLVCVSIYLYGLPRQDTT
Method: Figure 1. Functional properties of mCST. (A) Purified, detergent-solubilized mCST was bound to SPA beads and the indicated compound was titrated against 30 nM [^3H]CMP to determine its affinity. Solid symbols denote titrations done with mCST and the open symbols are for mCST∆C. (B) Time course of 30 µM CMP-Sia uptake for purified mCST reconstituted into lipid vesicles with (black) or without (red) 300 µM CMP inside the vesicles. […] (C) The initial velocity of CMP-Sia uptake for either mCST (solid circles) or mCST∆C (open circles) reconstituted into CMP-filled vesicles is plotted as a function of substrate concentration to determine the Km and Vmax for transport. In all panels, the symbols show the mean ± standard error of the mean (SEM) for n = 2, except for the CMP titrations in (A), and the titration for mCST in (C) where n = 4. Figure 1—figure supplement 1. Description of SLC35 proteins. (A) Diagram of the nucleotide-sugar transporter (NST) transport cycle. Nucleotide sugars are first synthesized in the cytoplasm (or nucleus for CMP-Sia). They are then transported into the Golgi lumen by NSTs (blue box). A large family of glycosyltransferase enzymes transfers the sugar to a glycan acceptor, leaving behind the nucleotide monophosphate (NMP), which is then transported back to the cytoplasm by the NST. (B) A list of proteins in the SLC35 family with a known function and the associated nucleotide sugar(s) that they transport. SLC35B2 and SLC35B3 are listed for completeness even though they transport PAPS, the substrate used in sulfonation reactions inside the Golgi. In mammals, mannose (Man) is only present in the oligosaccharide precursor that is synthesized in the cytoplasm and then transported across the ER membrane, by a family of transporters distinct from NSTs, before being added to nascent polypeptides to form the base for N-linked glycans. […] (C) The structural formulas of the nucleotide phosphate (left) and sugar (right) moieties of nucleotide sugars are shown. The ‘‘~” symbol indicates the bond that links the two moieties. […]

CST = settings: cited from earlier work
UDP-GlcNAc transporter = tested on: UDP-GlcNAc transporter; design: method as in Waldman and Rudnick, 1990; settings: monoanionic UMP compared to dianionic UMP; ref Waldman and Rudnick, 1990; cited from earlier work
mCST∆C [2] = molecular target: T1, mCST∆C; assay: Intrinsic tryptophan fluorescence quenching assay; type: binding; settings: fit of tryptophan fluorescence quenching, read-out: Kd (Trp-FL)
[3] = HPLC analysis of CMP-Sia hydrolysis in aqueous buffer; type: physicochemical; settings: AnP-treated CMP-Sia, AnP removed, pH 7.5 buffer, room temperature
[4] = no reference given; cited from earlier work
mCST (W145L) [5] = molecular target: T2, mCST (W145L) (Mus musculus, UniProt Q61420, W145L); assay: SPA two-point CMP binding
T2 sequence (Q61420 1-336 W145L): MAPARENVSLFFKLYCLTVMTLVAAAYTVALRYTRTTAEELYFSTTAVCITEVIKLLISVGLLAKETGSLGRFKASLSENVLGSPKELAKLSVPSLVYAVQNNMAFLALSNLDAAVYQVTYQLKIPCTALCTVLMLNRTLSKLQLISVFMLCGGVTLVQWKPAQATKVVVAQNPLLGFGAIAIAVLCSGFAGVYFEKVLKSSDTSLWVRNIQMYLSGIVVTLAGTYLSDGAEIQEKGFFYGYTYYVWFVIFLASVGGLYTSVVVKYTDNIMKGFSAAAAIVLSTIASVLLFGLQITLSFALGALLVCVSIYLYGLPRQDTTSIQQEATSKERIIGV

mCST (W160L) [6] = molecular target: T3, mCST (W160L) (Mus musculus, UniProt Q61420, W160L); assay: SPA two-point CMP binding
T3 sequence (Q61420 1-336 W160L): T2 sequence (Q61420 1-336 W145L) with L145W, W160L

mCST (W207L) = molecular target: T4, mCST (W207L) (Mus musculus, UniProt Q61420, W207L); assay: SPA two-point CMP binding
T4 sequence (Q61420 1-336 W207L): T2 sequence (Q61420 1-336 W145L) with L145W, W207L

mCST (W207F) = molecular target: T5, mCST (W207F) (Mus musculus, UniProt Q61420, W207F); assay: SPA two-point CMP binding
T5 sequence (Q61420 1-336 W207F): T2 sequence (Q61420 1-336 W145L) with L145W, W207F

mCST (W247L) [7] = molecular target: T6, mCST (W247L) (Mus musculus, UniProt Q61420, W247L); assay: SPA two-point CMP binding
T6 sequence (Q61420 1-336 W247L): T2 sequence (Q61420 1-336 W145L) with L145W, W247L

mCST [8] = molecular target: T7, mCST (Mus musculus, UniProt Q61420); assay: Intrinsic tryptophan fluorescence quenching assay
T7 sequence (Q61420 1-336): T2 sequence (Q61420 1-336 W145L) with L145W

mCST (W145L) [9] = molecular target: T2, mCST (W145L); assay: Intrinsic tryptophan fluorescence quenching assay
mCST (W160L) [10] = molecular target: T3, mCST (W160L); assay: Intrinsic tryptophan fluorescence quenching assay
mCST (W247L) [11] = molecular target: T6, mCST (W247L); assay: Intrinsic tryptophan fluorescence quenching assay
mCST Trp207 mutants = assay: Intrinsic tryptophan fluorescence quenching assay; settings: W207L and W207F mutants
mCST [12] = molecular target: T7, mCST; assay: Scintillation proximity binding assay (SPA), displacement of 30 nM [3H]CMP; design: Full-length mCST cDNA was synthesized (Bio Basic) and subcloned into the Pichia pastoris expression vector pPICZ; made in house; host or cells: Pichia pastoris
Method: Figure 1. Functional properties of mCST. (A) Purified, detergent-solubilized mCST was bound to SPA beads and the indicated compound was titrated against 30 nM [^3H]CMP to determine its affinity. Solid symbols denote titrations done with mCST and the open symbols are for mCST∆C. (B) Time course of 30 µM CMP-Sia uptake for purified mCST reconstituted into lipid vesicles with (black) or without (red) 300 µM CMP inside the vesicles. […] (C) The initial velocity of CMP-Sia uptake for either mCST (solid circles) or mCST∆C (open circles) reconstituted into CMP-filled vesicles is plotted as a function of substrate concentration to determine the Km and Vmax for transport. In all panels, the symbols show the mean ± standard error of the mean (SEM) for n = 2, except for the CMP titrations in (A), and the titration for mCST in (C) where n = 4. Figure 1—figure supplement 1. Description of SLC35 proteins. (A) Diagram of the nucleotide-sugar transporter (NST) transport cycle. Nucleotide sugars are first synthesized in the cytoplasm (or nucleus for CMP-Sia). They are then transported into the Golgi lumen by NSTs (blue box). A large family of glycosyltransferase enzymes transfers the sugar to a glycan acceptor, leaving behind the nucleotide monophosphate (NMP), which is then transported back to the cytoplasm by the NST. (B) A list of proteins in the SLC35 family with a known function and the associated nucleotide sugar(s) that they transport. SLC35B2 and SLC35B3 are listed for completeness even though they transport PAPS, the substrate used in sulfonation reactions inside the Golgi. In mammals, mannose (Man) is only present in the oligosaccharide precursor that is synthesized in the cytoplasm and then transported across the ER membrane, by a family of transporters distinct from NSTs, before being added to nascent polypeptides to form the base for N-linked glycans. […] (C) The structural formulas of the nucleotide phosphate (left) and sugar (right) moieties of nucleotide sugars are shown. The ‘‘~” symbol indicates the bond that links the two moieties. In mammals, two types of sialic acid may be transported into the Golgi: N-acetylneuraminic acid (Neu5Ac) or N-glycolylneuraminic acid (Neu5Gc). The ring atoms for the nucleobases and Neu5Ac and Gal are labeled. [drawing 1] Figure 1—figure supplement 2. Sequence alignment of mCST with other SLC35 and DMT proteins. The two letter prefix for each sequence name indicates the species as follows: mm: Mus musculus; hs: Homo sapiens; sc: Saccharomyces cerevisiae; sn: Starkeya novella; gs: Galdieria sulphuraria. […] The labeled yellow bars under the sequences indicate the extent of each TM. The interfacial alpha helix (IH) connecting TMs 2 and 3 is also indicated. [drawing 2] Figure 1—figure supplement 3.

For O=c1ccn([C@@H]2O[C@H](COP(=O)(O)O)[C@@H](O)[C@H]2O)c(=O)[nH]1 [UMP, Uridine 5′-monophosphate], the Kd (mCST∆C [1]) is given as 1620 ± 1120 µM, the “Fold higher Ki for inhibiting CMP-Sia transport (versus CMP)” value (CST; ref Chiaramonte et al., 2001) is given as 20 fold and the “Substrate quality for UDP-GlcNAc transporter (in words)” value (UDP-GlcNAc transporter) is given as “poor substrate”.
With Nc1ccn([C@@H]2O[C@H](COP(=O)(O)O)[C@@H](O)[C@H]2O)c(=O)n1 [CMP, Cytidine 5'-monophosphate] the Kd (mCST∆C [1]) was 1.8 ± 0.4 µM, the Kd (mCST∆C [2]) was 11.1 ± 2.9 µM and the “Rate of CMP generation from CMP-Sia hydrolysis” value [3] was 0.0051 ± 0.00014 %/min and 0.0051 %/min. The “Highest pKa of the phosphate group” value [4] was 6.3, the Kd (mCST (W145L) [5]) was 0.8 ± 0.3 µM and the Kd (mCST (W160L) [6]) was 1.6 ± 0.4 µM. It also gave a Kd (mCST (W207L)) of 1.5 ± 0.4 µM, a Kd (mCST (W207F)) of 3.8 ± 1.5 µM and a Kd (mCST (W247L) [7]) of 2.4 ± 1.5 µM. For the same compound, the Kd (mCST [8]) was 2.9 ± 1.1 µM, the “Quenching of intrinsic tryptophan fluorescence on CMP binding (in words)” value (mCST [8]; wild-type mCST) was “significantly quenched” and the Kd (mCST (W145L) [9]) was 3.3 ± 1 µM. For the same compound, the Kd (mCST (W160L) [10]) was 11.9 ± 2.4 µM, the Kd (mCST (W247L) [11]) was 7.4 ± 2.6 µM and the “Quenching of intrinsic tryptophan fluorescence by CMP (in words)” value (mCST Trp207 mutants) was “lack of any quenching”. For the same compound, the “Fold higher affinity of CMP towards mCST than CMP-Sia” value (mCST [12]; CMP versus CMP-Sia, Figure 1A) was ~ 100 fold, the Kd (mCST [12]; crude estimation from two-point SPA data (30 nM [3H]CMP ± 5 µM unlabeled CMP), mCST, read-out: Kd (SPA 2-point)) was 5.5 ± 1.6 µM and the Kd (mCST [12]; full SPA titration against 30 nM [3H]CMP, purified detergent-solubilized mCST, read-out: Kd (SPA titration)) was 6.3 ± 1.2 µM.
With Nc1nc2c(ncn2[C@@H]2O[C@H](COP(=O)(O)O)[C@@H](O)[C@H]2O)c(=O)[nH]1 [GMP, Guanosine 5′-monophosphate] the Kd (mCST∆C [1]) was 5380 ± 1150 µM.
For CC(=O)N[C@H]1[C@H]([C@H](O)[C@H](O)CO)OC(O)(C(=O)O)C[C@@H]1O (stereo partly drawn) [Sia, sialic acid], the “Competitive inhibition of CMP-Sia transport (in words)” value (CST; ref Carey et al., 1980, Perez and Hirschberg, 1987) is given as “does not competitively inhibit CMP-Sia transport” and the “Binding to mCST (in words)” value (mCST [12]; SPA titration, Figure 1A) is given as “does not bind mCST”.
